What was measured:
renin = molecular target: T1, renin (Homo sapiens, UniProt P00797); assay: in vitro inhibition of renin, radio immunoassay detection of Angiotensin I from an angiotensinogen-like substrate; assay type: biochemical; conditions: 10^-6 M concentration of test compound
T1 sequence (P00797 67-406): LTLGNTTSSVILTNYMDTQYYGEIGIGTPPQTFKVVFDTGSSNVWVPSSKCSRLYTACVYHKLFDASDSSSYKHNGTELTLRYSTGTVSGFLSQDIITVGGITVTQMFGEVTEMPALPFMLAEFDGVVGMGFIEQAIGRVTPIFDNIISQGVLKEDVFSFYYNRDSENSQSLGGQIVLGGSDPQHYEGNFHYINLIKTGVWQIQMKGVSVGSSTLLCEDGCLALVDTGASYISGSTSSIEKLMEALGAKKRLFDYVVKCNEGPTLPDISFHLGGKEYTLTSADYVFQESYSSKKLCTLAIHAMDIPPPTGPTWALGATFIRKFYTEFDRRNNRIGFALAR
Source text: The potent in vitro inhibition of the aspartyl protease renin was established using standard radio immunoassay techniques for the detection of Angiotensin I from an angiotensinogen-like substrate [Haber et al. (1969), J. Clin. Endocrinol. 29, 1349]. The results of these standard test procedures appears at the end of each Example of preparation of the relevant compound, as the percent inhibition of renin activity at […] concentration of test compound. The compounds of this invention have also shown strong resistance to breakdown by degradative enzymes such as chymotrypsin, following the procedure of Thaisrivongs et al. (1987) J. Med. Chem. 30, 536-541. […] Even after a 24 hour incubation, 68% of the compound of Example 1 remained. In accord with their ability to inhibit the enzyme renin, the compounds of this invention show plasma renin lowering effects and an antihypertensive action in a furosemide-stimulated high-renin model [De […]. et al. (1985), J. Cardiovascular Pharmacology 7, (Suppl. 4), S58-S61] with conscious rhesus monkeys, utilizing intravenous as well as oral dosing. For example, the product of Example 1 administered at 5 mg/kg iv lowered plasma renin activity (PRA) from 45 ng/ml/min to 5 ng/ml/min one half hour post-administration. Mean arterial pressure (MAP) was lowered 25 mm in that time period.

[1] = resistance to breakdown on incubation with chymotrypsin; assay type: in vitro ADME; conditions: read-out: remaining compound after incubation with chymotrypsin; for remaining at 1 h: incubation for one hour
Source text: The potent in vitro inhibition of the aspartyl protease renin was established using standard radio immunoassay techniques for the detection of Angiotensin I from an angiotensinogen-like substrate [Haber et al. (1969), J. Clin. Endocrinol. 29, 1349]. The results of these standard test procedures appears at the end of each Example of preparation of the relevant compound, as the percent inhibition of renin activity at […] concentration of test compound. The compounds of this invention have also shown strong resistance to breakdown by degradative enzymes such as chymotrypsin, following the procedure of Thaisrivongs et al. (1987) J. Med. Chem. 30, 536-541. For example, the compound of Example 1 was nearly unchanged upon incubation with chymotrypsin for one hour (93% remaining compound) whereas Boc-Phe Leu-ACHBA-OMe was extensively degraded (22% remaining compound) in the same time period. Even after a 24 hour incubation, 68% of the compound of Example 1 remained. In accord with their ability to inhibit the enzyme renin, the compounds of this invention show plasma renin lowering effects and an antihypertensive action in a furosemide-stimulated high-renin model [De Claviere, M. et al. (1985), J. Cardiovascular Pharmacology 7, (Suppl. 4), S58-S61] with conscious rhesus monkeys, utilizing intravenous as well as oral dosing. For example, the product of Example 1 administered at 5 mg/kg iv lowered plasma renin activity (PRA) from 45 ng/ml/min to 5 ng/ml/min one half hour post-administration. Mean arterial pressure (MAP) was lowered 25 mm in that time period.

[2] = test system: conscious rhesus monkeys (furosemide-stimulated high-renin model); assay: furosemide-stimulated high-renin model with conscious rhesus monkeys; assay type: in vivo
[3] = orally at 50 ng/kg, one-half hour post-administration

% I, percent inhibition of renin activity (renin) [%] | Molecule | other results
9 | COC(=O)C(O)C(CC1CCCCC1)NC(=O)[C@H](Cc1c[nH]cn1)NC(=O)[C@H](Cc1ccccc1)N1C(=O)c2ccccc2C1=O (stereo partly drawn) [Example 7, Beta-[[2-[[2-(1,3-dihydro-1,3-dioxo-2H-isoindol-2-yl)-1-oxo-3-phenylpropyl]amino]-3-(1H-imidazol-4-yl)-1-oxopropyl]amino]-alphahydroxycyclohexanebutanoic acid methyl ester] | –
74 | COC(=O)C(O)C(CC1CCCCC1)NC(=O)[C@H](CC(C)C)NC(=O)[C@H](Cc1ccccc1)N1C(=O)c2cccc3cccc(c23)C1=O (some centres unmarked) [Example 8] | –
76 | COC(=O)C(O)C(CC1CCCCC1)NC(=O)[C@H](CC(C)C)NC(=O)[C@H](Cc1ccccc1)N1C(=O)OC(C)(C)C1C (stereo partly drawn) [Example 9, Beta-[[2-[[2-[4,5,5-trimethyl-2-oxo-3-oxazolidinyl]-1-oxo-3-phenylpropyl]amino]-4-methyl-1-oxo-pentyl]amino]-alphahydroxycyclohexanebutanoic acid methyl ester] | –
86 | COC(=O)C(O)C(CC1CCCCC1)NC(=O)[C@H](CC(C)C)NC(=O)[C@H](Cc1ccccc1)N1CC(C)(C)OC1=O (stereo partly drawn) [Example 10, Beta-[[2-[[2-[5,5-dimethyl-2-oxo-3-oxazolidinyl]-1-oxo-3-phenylpropyl]amino]-4-methyl-1-oxo-pentyl]amino]-alphahydroxycyclohexanebutanoic acid methyl ester] | –
99 | CCC[C@H](NC(=O)[C@H](Cc1ccccc1)N1Cc2ccccc2C1=O)C(=O)NC(CC1CCCCC1)C(O)C(=O)OC(C)C (stereo partly drawn) [Example 11, Beta-[[2-[[2-[1,3-dihydro-1-oxo-2H-isoindol-2-yl]-1-oxo-3-phenylpropyl]amino]-1-oxo-pentyl]amino]-alphahydroxycyclohexanebutanoic acid 1-methylethyl ester] | –
99 | CCCC[C@H](NC(=O)[C@H](Cc1ccccc1)N1Cc2ccccc2C1=O)C(=O)NC(CC1CCCCC1)C(O)C(=O)OC(C)C (stereo partly drawn) [Example 12, Beta-[[2-[[2-[1,3-dihydro-1-oxo-2H-isoindol-2-yl]-1-oxo-3-phenylpropyl]amino]-1-oxo-hexyl]amino]-alphahydroxycyclohexanebutanoic acid 1-methylethyl ester] | –
92 | CC(C)C[C@H](NC(=O)[C@H](Cc1ccccc1)N1Cc2cccc3cccc(c23)C1=O)C(=O)NC(CC1CCCCC1)C(O)C(=O)OC(C)C (stereo partly drawn) [Example 13, Beta-[[2-[[2-[1,3-dihydro-1-oxo-2H-benzisoquinolin-2-yl]-1-oxo-3-phenylpropyl]amino]-4-methyl-1-oxo-pentyl]amino]-alphahydroxycyclohexanebutanoic acid 1-methylethyl ester] | –
93 | CC(C)C[C@H](NC(=O)[C@H](Cc1ccccc1)N1CCCC1=O)C(=O)NC(CC1CCCCC1)C(O)C(=O)OC(C)C (stereo partly drawn) [Example 14, Beta-[[2-[[2-[2-oxo-1-pyrrolidinyl]-1-oxo-3-phenylpropyl]amino]-4-methyl-1-oxo-pentyl]amino]-alpha-hydroxycyclohexanebutanoic acid 1-methylethyl ester] | –
91 | CC(C)C[C@H](NC(=O)[C@H](Cc1ccccc1)N1C[C@@H]2CCCN2C1=O)C(=O)NC(CC1CCCCC1)C(O)C(=O)OC(C)C (stereo partly drawn) [Example 16, Beta-[[2-[[2-[(7aS)-tetrahydro-3-oxo-1H-pyrrolo[1,2-c]imidazol-2(3H)-yl]-1-oxo-3-phenylpropyl]amino]-4-methyl-1-oxo-pentyl]amino]-alpha-hydroxycyclohexanebutanoic acid 1-methylethyl ester] | –
96 | Beta-[[2-[[2-[5-oxo-5H-imidazo[1,2-a]imidazol-6(7H)-yl]-1-oxo-3-phenylpropyl]amino]-4-methyl-1-oxo-pentyl]amino]-alpha-hydroxycyclohexanebutanoic acid 1-methylethyl ester [Example 15] | –

The next lines start with the molecule.

Molecule | % I, percent inhibition of renin activity (renin) [%] | other results
CC(C)C[C@H](NC(=O)[C@H](Cc1ccccc1)N1Cc2ccccc2C1=O)C(=O)NC(CC1CCCCC1)C(O)C(=O)OC(C)C (single isomer, unassigned) [Example 2 Diastereomer A, Beta-[[2-[[2-[1,3-dihydro-1-oxo-2H-isoindol-2-yl]-1-oxo-3-phenylpropyl]amino]-4-methyl-1-oxo-pentyl]amino]-alpha-hydroxycyclohexanebutanoic acid 1-methylethyl ester] | 98 | –
COC(=O)C(O)C(CC1CCCCC1)NC(=O)[C@H](CC(C)C)NC(=O)[C@H](Cc1ccccc1)NC(=O)OC(C)(C)C (stereo partly drawn) [Boc-Phe Leu-ACHBA-OMe, N-tertiary butyloxycarbonyl-Phe-Leu-3-amino-4-cyclohexyl-2-hydroxybutanoic acid methyl ester, reference compound] | – | remaining at 1 h [1]: 22%
COC(=O)C(O)C(CC1CCCCC1)NC(=O)[C@H](CC(C)C)NC(=O)[C@H](Cc1ccccc1)N1Cc2ccccc2C1=O (stereo partly drawn) [Example 1, Beta-[[2-[[2-[1,3-dihydro-1-oxo-2H-isoindol-2-yl]-1-oxo-3-phenylpropyl]amino]-4-methyl-1-oxo-pentyl]amino]-alpha-hydroxycyclohexanebutanoic acid methyl ester] | 97 | lowering of mean arterial pressure (MAP) ([2]; 5 mg/kg iv, one half hour post-administration): 25 mm; plasma renin activity (PRA) after administration ([2]; 5 mg/kg iv, one half hour post-administration, lowered from 45 ng/ml/min): 5 ng/mL/min; change in MAP [2, 3]: no significant change; decrease of PRA [2, 3]: 50%; remaining at 24 h ([1]; 24 hour incubation): 68%; remaining at 1 h [1]: 93%
COC(=O)C(O)C(CC1CCCCC1)NC(=O)[C@H](CC(C)C)NC(=O)[C@H](Cc1ccccc1)N1Cc2ncccc2C1=O (stereo partly drawn) [Example 3, Beta-[[2-[[-2-(1,3-dihydro-1-oxo-2H-pyrrolo[3,4-b]pyridin-2-yl)-1-oxo-3-phenylpropyl]amino]-4-methyl-1-oxopentyl]amino]-alpha-hydroxycyclohexanebutanoic acid methyl ester] | 89 | –
COC(=O)C(O)C(CC1CCCCC1)NC(=O)[C@H](Cc1c[nH]cn1)NC(=O)[C@H](Cc1ccccc1)N1Cc2ccccc2C1=O (stereo partly drawn) [Example 4, Beta-[[2-[[2-(1,3-dihydro-1-oxo-2H-isoindol-2-yl)-1-oxo-3-phenylpropyl]amino]-3-(1H-imidazol-4-yl)-1-oxopropyl]amino]-alpha-hydroxycyclohexane butanoic acid methyl ester] | 84 | –
CC(C)OC(=O)C(O)C(CC1CCCCC1)NC(=O)[C@H](Cc1c[nH]cn1)NC(=O)[C@H](Cc1ccccc1)N1Cc2ccccc2C1=O (stereo partly drawn) [Example 5, Beta-[[2-[[2-(1,3-dihydro-1-oxo-2H-isoindol-2-yl)-1-oxo-3-phenylpropyl]amino]-3-(1H-imidazol-4-yl)-1-oxopropyl]amino]-alphahydroxycyclohexanebutanoic acid 1-methylethyl ester] | 83 | –
COC(=O)C(O)C(CC1CCCCC1)NC(=O)[C@H](CC(C)C)NC(=O)[C@H](Cc1ccccc1)N1C(=O)c2ccccc2C1=O (stereo partly drawn) [Example 6, Beta-[[2-[[2-(1,3-dihydro-1,3-dioxo-2H-isoindol-2-yl)-1-oxo-3-phenylpropyl]amino]-4-methyl-1-oxopentyl]amino]-alphahydroxycyclohexanebutanoic acid methyl ester] | 45 | –

Source: patent publication US5023338A, “Renin inhibitors” (American Home Products Corporation, priority 1990, dated 1991)
